# The Deep4Chem optical property database
# “And” between values parts separate entries of the source, which are not always exact repeats. Equal entries are not always repeated.
# Assay: solvent given as SMILES
structure (smiles),measurement,setting,value
C[N+]1=C(/C=C/C=C2/N(CCC[N+](C)(C)C)c3ccc(S(=O)(=O)[O-])cc3C2(C)C)C(C)(C)c2ccccc21,emission maximum,in CS(C)=O,570 nm
C=Cc1cc2ccc(OC(=O)c3ccccc3)cc2oc1=O,emission maximum,in CC#N,420 nm
Cc1cccc(C2=Cc3ccc4ccccc4[n+]3[B-](F)(F)O2)c1,emission maximum,in ClC(Cl)Cl,440 nm
CCCCn1c2ccc(-c3ccccc3)cc2c2ccc3c4cc(-c5ccccc5)ccc4n(CCCC)c3c21,emission maximum,in ClC(Cl)Cl,414 nm
CC1=CC(/C=C/c2ccc(OCCCN=[N+]=[N-])cc2)=[N+]2C1=C(c1ccc(N3CCCCC3)cc1)c1c(C)cc(C)n1[B-]2(F)F,emission maximum,in CO,586 nm
CCn1c(-c2ccc(-c3cccc4ccccc34)cc2)c(-c2ccc3ccccc3c2)c(-c2ccc3ccccc3c2)c1-c1ccc(-c2cccc3ccccc23)cc1,emission maximum,in CCOC(C)=O,429 nm
C(=C\c1c[nH]cn1)/c1cc[n+]2ccc(/C=C/c3c[nH]cn3)cc2c1,emission maximum,in CO,527 nm
C(#Cc1cc2ccc3cc(C#Cc4ccccc4)cc4ccc(c1)c2c34)c1ccccc1,emission maximum,in Cc1ccccc1,418 nm
CN(C)c1ccc2c3c(ccc2c1)C(=O)CCC3,emission maximum,in C1CCCCC1,407 nm
same,emission maximum,in CC#N,448 nm
same,emission maximum,in CC(C)O,482 nm
same,emission maximum,in CCC(C)=O,443 nm
same,emission maximum,in CCO,489 nm
same,emission maximum,in CCOC(C)=O,429 nm
same,emission maximum,in CS(C)=O,453 nm
same,emission maximum,in Cc1ccccc1,417 nm
same,emission maximum,in ClCCl,440 nm
same,emission maximum,in Clc1ccccc1,423 nm
CC(C)[Si](C#Cc1c2nc3ccccc3nc2c(C#C[Si](C(C)C)(C(C)C)C(C)C)c2nc3c4ccccc4c(=O)c4ccccc4c3nc12)(C(C)C)C(C)C,emission maximum,in ClCCl,627 nm
CN(C)c1ccc(/C=C/c2nc(/C=C/c3ccc(N(c4ccccc4)c4ccccc4)cc3)cc(/C=C/c3ccc(N(c4ccccc4)c4ccccc4)cc3)n2)cc1,emission maximum,in C1CCOC1,512 nm
same,emission maximum,in CC#N,574 nm
same,emission maximum,in CC(C)=O,552 nm
same,emission maximum,in CCCCCCC,460 nm
same,emission maximum,in CS(C)=O,577 nm
same,emission maximum,in Cc1ccccc1,495 nm
same,emission maximum,in ClCCl,577 nm
CN(C)c1ccc(-c2cc(-c3cccs3)nc(-c3ccccc3)n2)cc1,emission maximum,in ClC(Cl)Cl,473 nm
CCCN1c2ccccc2Sc2cc(/C=C\c3cc(=O)oc4cc(C)ccc34)ccc21,emission maximum,in ClC(Cl)Cl,631 nm
CC1(C)c2ccccc2N(c2ccc3nc4c5ccc(N6c7ccccc7C(C)(C)c7ccccc76)cc5c5cc(N6c7ccccc7C(C)(C)c7ccccc76)ccc5c4nc3c2)c2ccccc21,emission maximum,in Cc1ccccc1,605 nm
same,emission maximum,in c1cc(-c2cccc(-n3c4ccccc4c4ccccc43)c2)cc(-n2c3ccccc3c3ccccc32)c1,590 nm
F[B-]1(F)Oc2ccccc2-c2n(-c3ccc(C(F)(F)F)cc3)c(-c3ccccc3)c(-c3ccccc3)[n+]21,emission maximum,in C1CCOC1,390 nm
Cc1cc(=O)oc2cc(/[NH+]=C/C=C3/C=C(C(=O)O)NC(C(=O)O)C3)ccc12 (stereo not drawn),emission maximum,in O,570 nm
CCCCC1(c2ccccc2)Nc2c(-c3ccc(OC)cc3)ccc(-c3ccc(OC)cc3)c2N=C1c1ccccc1 (stereo not drawn),emission maximum,in C1CCOC1,547 nm
same,emission maximum,in CC#N,556 nm
same,emission maximum,in CCCCCC,517 nm
same,emission maximum,in CN(C)C=O,568 nm
same,emission maximum,in Cc1ccccc1,525 nm
same,emission maximum,in ClC(Cl)Cl,537 nm
CCCCCCN1C(=O)c2cccc3c(-c4ccc(C)s4)ccc(c23)C1=O,emission maximum,in ClC(Cl)Cl,482 nm
O=S(=O)(c1cccc(-n2c3ccccc3c3ccccc32)c1)c1cccc(-n2c3ccccc3c3ccccc32)c1,emission maximum,in C1CCOC1,426 nm
same,emission maximum,in CCCCC(CC)n1c2ccc(-n3c4ccccc4c4ccccc43)cc2c2cc(-n3c4ccccc4c4ccccc43)ccc21,409.97 nm
same,emission maximum,in Cc1ccccc1,405 nm
same,emission maximum,in ClC(Cl)Cl,422 nm
same,emission maximum,in c1cc(-n2c3ccccc3c3ccccc32)cc(-n2c3ccccc3c3ccccc32)c1,419.94 nm
CN(C)C1=Nc2cccc3cccc1c23,emission maximum,in CC#N,589 nm
CCCCCCCCn1c(=O)c2cc3cc4cc5c(=O)n(CCCCCCCC)c(=O)c5cc4c(C#Cc4ccc(N(c5ccccc5)c5ccccc5)cc4)c3cc2c1=O,emission maximum,in ClC(Cl)Cl,611 nm
CCN(CC)c1ccc2c(-c3ccccc3C(=O)O)c3c([o+]c2c1)/C(=C/Nc1ccccc1)CCC3,emission maximum,in CCO,641 nm
same,emission maximum,in ClC(Cl)Cl,644 nm
same,emission maximum,in ClCCl,644 nm
CCN(CC)c1ccc2cc(-c3ccc(-c4c5ccccc5c(-c5ccc(-c6cc7ccc(N(CC)CC)cc7oc6=O)cc5)c5ccccc45)cc3)c(=O)oc2c1,emission maximum,in ClC(Cl)Cl,472 nm
Cc1ccc2nc(-c3cc(-c4nc5ccc(C)cc5[nH]4)cc(-c4nc5ccc(C)cc5[nH]4)c3)[nH]c2c1,emission maximum,in CS(C)=O,386.5 nm
CCN1\C(=C/C=C/C=C/C2=[N+](CC)c3ccc4cc(Br)ccc4c3C2(C)C)C(C)(C)c2c1ccc1cc(Br)ccc21,emission maximum,in C1CCOC1,709 nm
same,emission maximum,in CC#N,699 nm
same,emission maximum,in CC(C)=O,703 nm
same,emission maximum,in CCO,705 nm
same,emission maximum,in CN(C)C=O,705 nm
same,emission maximum,in CO,702 nm
same,emission maximum,in CS(C)=O,709 nm
same,emission maximum,in ClCCl,714 nm
CCCCCCC(CCCCCC)N1C(=O)c2cccc3c(-c4ccc(OC)c5ccccc45)ccc(c23)C1=O,emission maximum,in CCCCCC,427.1 nm
same,emission maximum,in CCCCCCCCCCCCCC,431.7 nm
same,emission maximum,in CCCCCCCCCCCO,532.4 nm
same,emission maximum,in CCCCO,576.8 nm
same,emission maximum,in CN(C)C=O,581.8 nm
same,emission maximum,in Cc1ccccc1,478 nm
same,emission maximum,in ClC(Cl)Cl,509.7 nm
COc1cc2c(cc1F)c(=O)c1cc(F)c(OC)cc1n2-c1ccccc1,emission maximum,in CCO,424 nm
COc1ccc(/C=C/c2ccc(-c3nnc(-c4ccc(-c5cc6ccccc6s5)cc4)o3)cc2)cc1,emission maximum,in CC#N,441 nm
same,emission maximum,in CC(C)=O,449 nm
same,emission maximum,in CCCCCCCC,407 nm
same,emission maximum,in CCCCCCCCCCO,427 nm
same,emission maximum,in CCCCCCCCO,433 nm
same,emission maximum,in CCCCCO,436 nm
same,emission maximum,in CCCO,438 nm
same,emission maximum,in CN(C)C=O,463 nm
same,emission maximum,in CO,445 nm
same,emission maximum,in CS(C)=O,459 nm
c1cc2ccc1-c1ccc(cc1)-c1ccc([se]1)-c1ccc(cc1)-c1ccc(cc1)-c1ccc([se]1)-c1ccc(cc1)-c1ccc(cc1)-c1ccc([se]1)-c1ccc(cc1)-c1ccc(cc1)-c1ccc-2[se]1,emission maximum,in C1CCOC1,492 nm
COc1cc2c(cc1F)c(=O)c1cc(F)c(OC)cc1n2Cc1ccccc1,emission maximum,in CCO,416 nm
CCCCCOc1cc2oc(=O)c3c4ccc(N)cc4c4ccc5cccc6c(c1)c2c3c4c56,emission maximum,in C1CCOC1,550 nm
CCCC1(CCC)c2cc(-c3ccc(-c4ccc(OC)cc4)o3)ccc2-c2ccc(-c3ccc(-c4ccc(OC)cc4)o3)cc21,emission maximum,in C1CCCCC1,425 nm
N#Cc1c2nc3ccccn3c2nc2nc3ccccn3c12,emission maximum,in C1CCCCC1,485 nm
same,emission maximum,in C1COCCO1,505 nm
same,emission maximum,in CC#N,525 nm
same,emission maximum,in CN(C)C=O,540 nm
same,emission maximum,in ClC(Cl)Cl,510 nm
CC1(C)c2ccccc2N(c2cc[n+]3c(c2)-c2ccccc2O[B-]3(F)F)c2ccccc21,emission maximum,in Cc1ccccc1,540 nm
same,emission maximum,in O=P(c1ccccc1)(c1ccccc1)c1ccccc1Oc1ccccc1P(=O)(c1ccccc1)c1ccccc1,542 nm
c1ccc(-c2nc3ccccc3nc2-c2ccc(-n3c4ccccc4c4ccccc43)cc2)cc1,emission maximum,in Cc1ccccc1,434 nm
CN(C)c1ccc2c(c1)COc1c-2oc2ccccc2c1=O,emission maximum,in C1CCCCC1,411.43 nm
same,emission maximum,in CC#N,489 nm and 491.43 nm
same,emission maximum,in CCOC(C)=O,464 nm and 461.07 nm
same,emission maximum,in Cc1ccccc1,441 nm
Cc1cc(-c2nc3c4ccccc4c4ccccc4c3n2-c2ccc(C(C)(C)C)cc2)ccc1-c1ccc(-c2c(-c3ccccc3)nc3ccccn23)cc1,emission maximum,in ClCCl,416 nm
Cn1nc(-c2ccccc2)cc1-c1ccccc1,emission maximum,in ClCCl,338 nm
FC(F)(F)c1cc2n(n1)[B-]1(c3ccccc3-c3ccccc31)[n+]1ccc3ccccc3c1-2,emission maximum,in C1CCCCC1,490 nm
same,emission maximum,in Cc1ccccc1,538 nm
same,emission maximum,in ClCCl,564 nm
CC(C)(C)c1ccc2c(c1)c1cc(C(C)(C)C)ccc1n2-c1ccc(-c2nc3cc(C#N)c(C#N)cc3nc2-c2ccc(-n3c4ccc(C(C)(C)C)cc4c4cc(C(C)(C)C)ccc43)cc2)cc1,emission maximum,in Cc1ccccc1,544 nm
CC(C)(C)c1ccc2c(c1)c1cc(C(C)(C)C)ccc1n2-c1ccc(-n2c3ccc(C(C)(C)C)cc3c3cc(C(C)(C)C)ccc32)c(C(=O)c2ccncc2)c1,emission maximum,in C1CCOC1,519.49 nm
same,emission maximum,in CCCCCC,476.84 nm
same,emission maximum,in Cc1ccccc1,508 nm
same,emission maximum,in ClCCl,561.4 nm
Fc1ccc(-c2ccc(-c3cc(-c4ccccn4)nc(-c4ccccn4)c3)cc2)c(F)c1,emission maximum,in ClCCl,358 nm
CCCCCOc1cc2oc(=O)c3c4ccc(N(c5ccc(C)cc5)c5ccc(C)cc5)cc4c4ccc5cccc6c(c1)c2c3c4c56,emission maximum,in C1CCOC1,605 nm
Cc1ccc(C#Cc2ccc(C#Cc3ccc(C#Cc4ccccc4C#N)cc3C#N)cc2C#N)cc1,emission maximum,in ClC(Cl)Cl,403 nm
O=C(O)C1=C/C(=C/C=[NH+]/c2ccc3c(C(F)(F)F)cc(=O)oc3c2)CC(C(=O)O)N1 (stereo not drawn),emission maximum,in O,570 nm
Cc1cc(C)c(B(c2c(C)cc(C)cc2C)c2cc3ccc4ccccc4c3c3c2ccc2ccccc23)c(C)c1,emission maximum,in C1CCCCC1,436 nm
same,emission maximum,in C1CCOC1,446 nm
same,emission maximum,in CC#N,449 nm
same,emission maximum,in ClC(Cl)Cl,443 nm
same,emission maximum,in c1ccccc1,444 nm
CCC1(CC)c2cc(/C=C/c3ccc(N(c4ccccc4)c4ccccc4)cc3)ccc2-c2ccc(/C=C/c3ccc(N(c4ccccc4)c4ccccc4)cc3)cc21,emission maximum,in Cc1ccccc1,451 nm
CCCCCCCc1ccc(C2=[N+]3C(=C4c5cc(OCC(CC)CC)c(-c6ccc(CCCCCCC)o6)n5[B-](F)(F)[n+]5nnn(c54)[B-]3(F)F)C=C2OCC(CC)CC)o1,emission maximum,in C1CCOC1,829 nm
same,emission maximum,in ClCCl,835 nm
Cc1cc2nc3cc(C)c(N)cc3[n+](-c3ccccc3)c2cc1N,emission maximum,in CC(C)O,562 nm
same,emission maximum,in CCO,564 nm
same,emission maximum,in CO,563.8 nm
same,emission maximum,in O,588.3 nm
Oc1ccc2ccccc2c1/C=N/c1ccccc1/N=C/c1c(O)ccc2ccccc12,emission maximum,in CC#N,496 nm
[O-][n+]1c(-c2ccc(Br)cc2)cc(N2CCOCC2)nc1/C=C/c1ccccc1,emission maximum,in ClCCl,548 nm
COC(=O)/C=C/c1sc(-c2ccc(N(C)C)cc2)c(-c2cccnc2)c1N,emission maximum,in CC#N,593 nm
CCN(CC)c1ccc2cc(C#N)c(=O)oc2c1,emission maximum,in ClCCl,460 nm
